These results are taken from patent US5981539A, “Piperidine compounds as calcium channel blockers” (Neurosearch A/S, priority 1995, dated 1999).

pIC50: −log10 of the molar value.

System in one experiment: not given
Test: not given
The note with it: drugs that act at both sodium and calcium channels; result in words; cited from earlier work.
Consider `Cc1ccc(-c2nc(C)c(CN3CCN(C(c4ccccc4)c4ccccc4)CC3)[nH]2)cc1` [Lifarizine], for which the “anti-ischaemic activity in animal models” value is given as “powerful anti-ischaemic activity”.

`COc1ccc(CN2CCN(C(c3ccc(F)cc3)c3ccc(F)cc3)CC2)c(OC)c1OC` [Lomerizine]: the “anti-ischaemic activity in animal models” value is “powerful anti-ischaemic activity”.

For the compound Lanodipine, the “anti-ischaemic activity in animal models” value was “powerful anti-ischaemic activity”.

In the next experiment the target is N-type calcium channels (chick cortical synaptosomes) (Gallus gallus, UniProt A0A8V1AJW5). Description: 45Ca-uptake/influx into chick cortical synaptosomes (K+ depolarization, 30 mM K+). The experiment is classed as biochemical. The conditions noted are these: 30 mM K+ minus 4 mM K+, 10 sec influx, 37° C., pH 7.4, read-out: IC50 (concentration of test substance which inhibits the specific uptake of 45Ca by 50%).
Sequence of N-type calcium channels (chick cortical synaptosomes) (A0A8V1AJW5 1-2349): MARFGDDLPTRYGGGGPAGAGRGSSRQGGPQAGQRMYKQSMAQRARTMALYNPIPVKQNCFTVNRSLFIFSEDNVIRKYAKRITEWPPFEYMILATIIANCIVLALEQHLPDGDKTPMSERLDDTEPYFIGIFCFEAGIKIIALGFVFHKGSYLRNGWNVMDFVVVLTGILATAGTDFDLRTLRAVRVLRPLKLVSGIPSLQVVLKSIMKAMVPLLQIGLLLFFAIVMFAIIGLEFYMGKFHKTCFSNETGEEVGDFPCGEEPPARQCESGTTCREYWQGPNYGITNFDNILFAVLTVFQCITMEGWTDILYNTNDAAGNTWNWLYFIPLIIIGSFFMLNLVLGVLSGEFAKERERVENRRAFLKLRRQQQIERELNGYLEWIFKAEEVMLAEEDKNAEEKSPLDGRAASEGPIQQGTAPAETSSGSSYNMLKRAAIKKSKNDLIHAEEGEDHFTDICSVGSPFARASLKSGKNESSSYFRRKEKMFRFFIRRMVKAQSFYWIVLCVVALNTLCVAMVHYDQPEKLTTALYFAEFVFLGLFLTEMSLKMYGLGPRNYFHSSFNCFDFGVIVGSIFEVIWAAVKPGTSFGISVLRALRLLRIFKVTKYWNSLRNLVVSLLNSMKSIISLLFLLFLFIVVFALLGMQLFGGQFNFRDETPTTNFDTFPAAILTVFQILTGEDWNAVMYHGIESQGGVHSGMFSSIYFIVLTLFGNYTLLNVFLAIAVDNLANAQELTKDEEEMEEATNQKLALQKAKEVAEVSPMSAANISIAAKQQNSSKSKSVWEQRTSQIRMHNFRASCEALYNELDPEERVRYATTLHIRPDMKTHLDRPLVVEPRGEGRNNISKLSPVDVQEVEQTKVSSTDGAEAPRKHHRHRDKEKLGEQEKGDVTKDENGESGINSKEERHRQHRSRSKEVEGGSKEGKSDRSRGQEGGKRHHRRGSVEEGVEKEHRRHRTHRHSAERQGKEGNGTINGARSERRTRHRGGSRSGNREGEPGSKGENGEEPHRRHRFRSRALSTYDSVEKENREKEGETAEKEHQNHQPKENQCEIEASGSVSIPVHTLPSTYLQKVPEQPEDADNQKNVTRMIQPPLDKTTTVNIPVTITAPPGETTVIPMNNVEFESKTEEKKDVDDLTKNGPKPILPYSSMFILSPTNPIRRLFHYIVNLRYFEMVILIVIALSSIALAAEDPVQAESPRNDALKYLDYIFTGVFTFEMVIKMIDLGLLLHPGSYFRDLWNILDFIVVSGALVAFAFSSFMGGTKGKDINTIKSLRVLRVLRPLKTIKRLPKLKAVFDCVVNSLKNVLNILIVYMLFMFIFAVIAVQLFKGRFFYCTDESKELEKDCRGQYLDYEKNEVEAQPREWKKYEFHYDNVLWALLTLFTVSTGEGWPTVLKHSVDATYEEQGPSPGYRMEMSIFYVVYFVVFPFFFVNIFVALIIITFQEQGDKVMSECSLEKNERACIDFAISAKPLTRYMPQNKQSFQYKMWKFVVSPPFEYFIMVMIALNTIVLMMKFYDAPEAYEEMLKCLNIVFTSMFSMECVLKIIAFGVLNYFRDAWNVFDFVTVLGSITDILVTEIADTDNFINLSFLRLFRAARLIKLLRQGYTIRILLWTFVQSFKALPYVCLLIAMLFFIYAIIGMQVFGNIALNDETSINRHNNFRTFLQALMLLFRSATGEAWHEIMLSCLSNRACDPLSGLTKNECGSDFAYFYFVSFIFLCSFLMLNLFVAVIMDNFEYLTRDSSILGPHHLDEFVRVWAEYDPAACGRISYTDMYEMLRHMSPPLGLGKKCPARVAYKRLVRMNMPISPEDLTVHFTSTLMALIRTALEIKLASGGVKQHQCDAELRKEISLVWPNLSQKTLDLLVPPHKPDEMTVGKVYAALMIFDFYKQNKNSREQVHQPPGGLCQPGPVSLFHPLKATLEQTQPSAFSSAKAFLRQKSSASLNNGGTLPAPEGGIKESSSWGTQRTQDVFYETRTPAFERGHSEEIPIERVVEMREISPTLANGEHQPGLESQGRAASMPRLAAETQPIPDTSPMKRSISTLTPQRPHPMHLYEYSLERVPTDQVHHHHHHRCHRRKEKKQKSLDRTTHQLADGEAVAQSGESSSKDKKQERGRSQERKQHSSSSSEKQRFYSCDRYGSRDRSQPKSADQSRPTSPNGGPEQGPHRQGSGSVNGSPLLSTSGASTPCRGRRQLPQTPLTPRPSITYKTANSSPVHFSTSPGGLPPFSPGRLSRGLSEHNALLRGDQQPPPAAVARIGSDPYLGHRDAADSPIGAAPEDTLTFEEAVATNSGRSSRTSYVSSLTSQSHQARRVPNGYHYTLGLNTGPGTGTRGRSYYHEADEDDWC
In the case of `CCCCCN1CC[C@@H](SCc2ccc(Cl)cc2)[C@H](OCCOC)C1` (racemic) [(±)-trans-4-[(4-chlorobenzyl)thio]-3-(2-methoxy-1-ethoxy)-N-pentylpiperidine], the pIC50 is 6.00.

In the case of `CCCCCN1CC[C@H](CCOc2ccccc2-c2ccccc2)[C@H](OC)C1` (racemic) [(±)-cis-4-[2-(2-phenylphenoxy)ethyl]-3-methoxy-N-pentylpiperidine], the pIC50 is 6.00.

As to `CCCCCN1CC[C@@H](CCOc2ccc(Cl)c(Cl)c2)[C@H](OC)C1` (racemic) [(±)-trans-4-[2-(3,4-Dichlorophenoxy)-ethyl]-3-methoxy-N-pentylpiperidine], the pIC50 is 6.15.

As for `CCCCCN1CC[C@H](CCOc2ccccc2Cc2ccccc2)[C@H](OC)C1` (racemic) [(±)-cis-4-[2-(2-benzylphenoxy)ethyl]-3-methoxy-N-pentylpiperidine], the pIC50 is 6.05.

With `CCCCCN1CC[C@H](CCN(c2ccccc2)c2ccccc2)[C@H](OC)C1` (racemic) [(±)-cis-4-[2-(N,N-diphenylamino)ethyl]-3-methoxy-N-pentylpiperidine], the pIC50 is 5.96.

As for `CCCCCN1CC[C@@H](CCOc2cccc(OC(C)C)c2)[C@H](OCCOC)C1` (racemic) [(±)-trans-4-[2-(3-isopropoxyphenoxy)ethyl]-3-(2-methoxy-1-ethoxy)-N-pentylpiperidine], the pIC50 is 5.96.

On to `CCCCCN1CC[C@@H](CCOc2ccccc2Cc2ccccc2)[C@H](OC)C1` (racemic) [(±)-trans-4-[2-(2-benzylphenoxy)ethyl]-3-methoxy-N-pentylpiperidine], for which the pIC50 is 6.22.

Consider `CCCCCN1CC[C@@H](CCOc2ccc(Cl)c(Cl)c2)[C@H](OC(C)=O)C1` (racemic) [(±)-trans-4-[2-(3,4-Dichlorophenoxy)-ethyl]-3-acetoxy-N-pentylpiperidine], for which the pIC50 is 6.30.

As for `CCCCCN1CC[C@@H](Oc2ccccc2OCc2ccccc2)[C@H](OCCOC)C1` (racemic) [(±)-trans-4-[(2-benzyloxyphenoxy)]-3-(2-methoxy-1-ethoxy)-N-pentylpiperidine], the pIC50 is 6.05.

With `CCCCCN1CC[C@@H](CCN(c2ccccc2)c2ccccc2)[C@H](OC)C1` (racemic) [(±)-trans-4-[2-(N,N-diphenylamino)ethyl]-3-methoxy-N-pentylpiperidine], the pIC50 is 5.89.

For `CCCCCN1CC[C@H](CCOc2cccc(C)c2C)[C@H](OC)C1` (racemic) [(±)-cis-4-[2-(2,3-Dimethylphenoxy)-ethyl]-3-methoxy-N-pentylpiperidine], the pIC50 is 6.05.

As for `CCCCCN1CC[C@@H](CCN(c2ccccc2)c2ccccc2)[C@H](OCCOC)C1` (racemic) [(±)-trans-4-[2-(N,N-diphenylamino)ethyl]-3-(2-methoxy-1-ethoxy)-N-pentylpiperidine], the pIC50 was 6.30.

On to `CCCCCN1CC[C@H](CCOc2ccc(Cl)c(Cl)c2)[C@@H](OCCOC)C1` (relative stereo) [(±)-trans-4-[2-(3,4-Dichlorophenoxy)-ethyl]-3-(2-methoxy)-ethoxy-N-pentylpiperidine], for which the pIC50 was 6.40.

Regarding `CCCCCN1CC[C@@H](Oc2ccc(Oc3ccccc3)cc2)[C@H](OCCOC)C1` (racemic) [(±)-trans-4-[4-phenoxyphenoxy]-3-(2-methoxy-1-ethoxy)-N-pentylpiperidine], the pIC50 is 6.21.

As for `CCCCCN1CC[C@@H](CCOc2ccc(Cl)c(Cl)c2)[C@@H](OCCOC)C1` (relative stereo) [(±)-cis-4-[2-(3,4-Dichlorophenoxy)-ethyl]-3-(2-methoxy)-ethoxy-N-pentylpiperidine], the pIC50 was 6.52.
